Consider five compounds from patent publication US20050272726A1, “Novel medicaments for the treatment of respiratory diseases” (Boehringer Ingelheim International GmbH, priority 2004, published 2005).

Where a name gives a salt, the structure may show the parent alone.

`CC(C)(Cc1ccc(F)cc1F)NCC(O)c1cc(O)cc2c1OCC(=O)N2` (centres unmarked) (as salt: hydrochloride) registered a melting point of 279 to 280 °C.

In the case of `Cc1cc(CC(C)(C)NCC(O)c2cc(O)cc3c2OCC(=O)N3)ccc1F` (centres unmarked) (as salt: hydrochloride) [Example 8, 8-{2-[2-(4-Fluoro-3-methyl-phenyl)-1,1-dimethyl-ethylamino]-1-hydroxy-ethyl}-6-hydroxy-4H-benzo[1,4]oxazin-3-one], the melting point is 278 to 280 °C.

`Cc1cc(F)ccc1CC(C)(C)NCC(O)c1cc(O)cc2c1OCC(=O)N2` (centres unmarked) (as salt: hydrochloride) [Example 9, 8-{2-[2-(4-fluoro-2-methyl-phenyl)-1,1-dimethyl-ethylamino]-1-hydroxy-ethyl}-6-hydroxy-4H-benzo[1,4]oxazin-3-one]: the melting point is 278 to 280 °C.

Compound `CC(C)(Cc1ccc(OCCCC(=O)O)cc1)NCC(O)c1cc(O)cc2c1OCC(=O)N2` (centres unmarked) [Example 14, 4-(4-{2-[2-hydroxy-2-(6-hydroxy-3-oxo-3,4-dihydro-2H-benzo[1,4]oxazin-8-yl)-ethylamino]-2-methyl-propyl}-phenoxy)-butyric acid] displayed a melting point of 201 to 204 °C.

`Cc1cc(C)cc(CC(C)(C)NCC(O)c2cc(O)cc3c2OCC(=O)N3)c1` (centres unmarked) (as salt: hydrochloride) [Example 13, 8-{2-[2-(3,5-dimethyl-phenyl)-1,1-dimethyl-ethylamino]-1-hydroxy-ethyl}-6-hydroxy-4H-benzo[1,4]oxazin-3-one] had a melting point of 235 to 238 °C.

Usually melting point stands for the temperature of the solid-liquid transition.
